Experimental data published in patent US6737383B1, “Herbicidal oxadiazolidines” (priority 1999, dated 2004).

Key:
surinam grass = test: Test B pre/postemergence surinam grass; type: in vivo, Brachiaria decumbens
Summary of the method: (§1)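 Response is a visual 0-to-10 score relative to untreated plants, where 0 means no effect and 10 means complete control, taken twelve to sixteen days after application. Treatments went onto soil at planting and onto foliage of 1- to 4-leaf plants, using a surfactant-containing non-phytotoxic solvent.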

blackgrass = test: Test B pre/postemergence blackgrass; type: in vivo, Alopecurus myosuroides
Summary of the method: as §1

bamyardgrass = test: Test B flood test barnyardgrass; type: in vivo, Echinochloa crus-galli
Summary of the method: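 Plants were grown to the 2-leaf stage before treatment with test chemical, then held in a greenhouse for twelve to sixteen days. Injury was visually rated against untreated controls on a 0–10 scale, where 0 is no effect and 10 is complete control.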

sugar beet = test: Test B pre/postemergence sugar beet; type: in vivo, Beta vulgaris
Summary of the method: as §1

[1] = Postemergence, Rate 62 g/ha, scale 0 to 10, 0 is no effect, 10 is complete control
[2] = Postemergence, Rate 250 g/ha, scale 0 to 10, 0 no effect, 10 complete control
[3] = Preemergence, Rate 62 g/ha, scale 0 to 10, 0 is no effect, 10 is complete control
[4] = Preemergence, Rate 125 g/ha, scale 0 to 10 (0 no effect, 10 complete control)
[5] = Preemergence, Rate 250 g/ha, scale of 0 to 10 where 0 is no effect and 10 is complete control
[6] = Preemergence, Rate 500 g/ha, scale 0 (no effect) to 10 (complete control)
[7] = Rate 125 g/ha, Postemergence, scale 0 to 10, 0 no effect, 10 complete control
[8] = Rate 500 g/ha, Postemergence, 0 to 10 scale (0 no effect, 10 complete control)
[9] = Rate 31 g/ha, Postemergence section (flood test species), scale 0 to 10
[10] = Rate 125 g/ha, Postemergence section (flood test species), scale 0 to 10, 0 no effect, 10 complete control
[11] = flood test, listed under Postemergence, Rate 250 g/ha, scale 0 to 10, 0 no effect, 10 complete control
[12] = Preemergence, Rate 31 g/ha, visual rating, scale 0 to 10 (0 no effect, 10 complete control)
[13] = Rate 31 g/ha, Postemergence, scale 0 to 10
[14] = Rate 500 g/ha, Postemergence section of Table B, 0 to 10 scale (0 no effect, 10 complete control)

SMILES	B. signalgrass plant response rating (surinam grass; [1])	B. signalgrass plant response rating (surinam grass; [2])	Plant response rating, B. signalgrass (surinam grass; [3])	Plant response rating, B. signalgrass (surinam grass; [4])	Plant response rating, B. signalgrass (surinam grass; [5])	B. signalgrass plant response rating (surinam grass; [7])	Blackgrass plant response rating (blackgrass; [1])	Blackgrass plant response rating (blackgrass; [2])	Plant response rating, Blackgrass (blackgrass; [3])	Plant response rating, Blackgrass (blackgrass; [4])	Plant response rating, Blackgrass (blackgrass; [5])	Blackgrass plant response rating (blackgrass; [7])	Barnyardgrass plant response rating (bamyardgrass; [1])	Barnyardgrass plant response rating (bamyardgrass; [10])	Barnyardgrass plant response rating (bamyardgrass; [11])	Sugarbeets plant response rating (sugar beet; [1])	Sugarbeets plant response rating (sugar beet; [2])	Plant response rating, Sugarbeets (sugar beet; [3])	Plant response rating, Sugarbeets (sugar beet; [4])	Plant response rating, Sugarbeets (sugar beet; [5])	further results
CC(C)N(C(=O)n1oc(=O)n(-c2ccccc2OC(F)(F)F)c1=O)c1ccc(F)cc1 [Compound 14]	0	0	0	0	0	0	0	0	0	0	0	0	0	0	0	0	0	0	0	0	B. signalgrass plant response rating (surinam grass; [6]): 2; B. signalgrass plant response rating (surinam grass; [8]): 0; Blackgrass plant response rating (blackgrass; [6]): 2; Blackgrass plant response rating (blackgrass; [8]): 3; Barnyardgrass plant response rating (bamyardgrass; [9]): 0; Sugarbeets plant response rating (sugar beet; [6]): 0; Sugarbeets plant response rating (sugar beet; [7]): 0
CC(C)N(C(=O)n1oc(=O)n(-c2ccc(F)cc2F)c1=O)c1ccc(F)cc1F [Compound 22]	0	2	0	2	4	0	1	3	0	4	6	1	0	0	0	0	0	0	4	7	B. signalgrass plant response rating (surinam grass; [12]): 0; B. signalgrass plant response rating (surinam grass; [13]): 0; Blackgrass plant response rating (blackgrass; [12]): 0; Blackgrass plant response rating (blackgrass; [13]): 0; Barnyardgrass plant response rating (bamyardgrass; [9]): 0; Sugarbeets plant response rating (sugar beet; [12]): 0; Sugarbeets plant response rating (sugar beet; [7]): 0
CCN(C(=O)n1oc(=O)n(-c2ccc(F)cc2F)c1=O)C1CCCCC1 [Compound 23]	0	0	0	0	0	0	0	0	0	1	2	0	0	0	0	0	0	0	0	0	B. signalgrass plant response rating (surinam grass; [12]): 0; B. signalgrass plant response rating (surinam grass; [13]): 0; Blackgrass plant response rating (blackgrass; [12]): 0; Blackgrass plant response rating (blackgrass; [13]): 0; Barnyardgrass plant response rating (bamyardgrass; [9]): 0; Sugarbeets plant response rating (sugar beet; [12]): 0; Sugarbeets plant response rating (sugar beet; [7]): 0
Cc1ccc(-n2c(=O)on(C(=O)N(c3ccc(F)cc3F)C(C)C)c2=O)c(C)c1 [Compound 24]	0	3	0	4	4	3	0	3	0	1	4	1	0	0	0	0	0	0	3	4	B. signalgrass plant response rating (surinam grass; [6]): 6; B. signalgrass plant response rating (surinam grass; [8]): 3; Blackgrass plant response rating (blackgrass; [6]): 4; Blackgrass plant response rating (blackgrass; [8]): 6; Barnyardgrass plant response rating (bamyardgrass; [14]): 8; Sugarbeets plant response rating (sugar beet; [6]): 9; Sugarbeets plant response rating (sugar beet; [7]): 0
COc1ccc(-n2c(=O)on(C(=O)N(c3ccc(F)cc3)C(C)C)c2=O)c(OC)c1 [Compound 33]	0	1	0	0	7	0	4	5	0	0	0	5	0	0	3	0	6	0	0	0	B. signalgrass plant response rating (surinam grass; [12]): 0; B. signalgrass plant response rating (surinam grass; [13]): 0; Blackgrass plant response rating (blackgrass; [12]): 0; Blackgrass plant response rating (blackgrass; [13]): 3; Barnyardgrass plant response rating (bamyardgrass; [14]): 6; Sugarbeets plant response rating (sugar beet; [12]): 0; Sugarbeets plant response rating (sugar beet; [7]): 2
